# According to PMC4385830, “Group I Paks as therapeutic targets in NF2-deficient meningioma” (Oncotarget, 2015):
# Legend:
# [1] = system: KT21 cells; test: Apoptosis, Annexin V positive cells by flow cytometry; assay type: cell-based; conditions: 3 days, vs DMSO
# Method: For detection of apoptosis, subconfluent cells were plated in 60-mm plate and treated with inhibitors for 3 days. Cells were collected, washed and resuspended in 1x binding buffer with Annexin V-EGFP and propidium iodide (BioVision, CA) and incubated at room temperature for 5 min in dark. Apoptosis was measured using FACS with collecting 10,000 events per sample.
# [2] = target: T1, ABL2 (Arg) (Homo sapiens, UniProt P42684); test: Kinase selectivity, Z'-LYTE; assay type: biochemical
# T1 construct: purchased Invitrogen (Life Technologies) SelectScreen Z'-LYTE
# Method in brief: (§1)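 Each recombinant kinase phosphorylates a peptide substrate under conditions optimized for that enzyme. A protease then cleaves only non-phosphorylated peptide, and the fluorescence change reports kinase activity.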
# [3] = target: T2, AKT2 (PKB beta) (Homo sapiens, UniProt P31751); test: Kinase selectivity, Z'-LYTE; assay type: biochemical
# T2 construct: purchased Invitrogen (Life Technologies) SelectScreen Z'-LYTE
# Method in brief: as §1
# [4] = target: T3, AMPKA1/B1/G1 (Homo sapiens, UniProt Q13131); test: Kinase selectivity, Z'-LYTE; assay type: biochemical
# T3 construct: purchased Invitrogen (Life Technologies) SelectScreen Z'-LYTE
# Method in brief: as §1
# [5] = target: T4, AMPKA2/B1/G1 (Homo sapiens, UniProt P54646); test: Kinase selectivity, Z'-LYTE; assay type: biochemical
# T4 construct: purchased Invitrogen (Life Technologies) SelectScreen Z'-LYTE
# Method in brief: as §1
# [6] = target: T5, CDK6/p25 (Homo sapiens, UniProt Q00535); test: Kinase selectivity, Z'-LYTE; assay type: biochemical
# T5 construct: purchased Invitrogen (Life Technologies) SelectScreen Z'-LYTE
# Method in brief: as §1
# [7] = target: T6, CDK7/cyclin H/MNAT1 (Homo sapiens, UniProt P50613); test: Kinase selectivity, Z'-LYTE; assay type: biochemical
# T6 construct: purchased Invitrogen (Life Technologies) SelectScreen Z'-LYTE
# Method in brief: as §1
# [8] = target: T7, CSF1R (FMS) (Homo sapiens, UniProt P07333); test: Kinase selectivity, Z'-LYTE; assay type: biochemical
# T7 construct: purchased Invitrogen (Life Technologies) SelectScreen Z'-LYTE
# Method in brief: as §1
# [9] = target: T8, DYRK1B (Homo sapiens, UniProt Q9Y463); test: Kinase selectivity, Z'-LYTE; assay type: biochemical
# T8 construct: purchased Invitrogen (Life Technologies) SelectScreen Z'-LYTE
# Method in brief: as §1
# [10] = target: T9, EGFR (ErbB1) (Homo sapiens, UniProt P00533); test: Kinase selectivity, Z'-LYTE; assay type: biochemical
# T9 construct: purchased Invitrogen (Life Technologies) SelectScreen Z'-LYTE
# Method in brief: as §1
# [11] = target: T10, ITK (Homo sapiens, UniProt Q08881); test: Kinase selectivity, Z'-LYTE; assay type: biochemical
# T10 construct: purchased Invitrogen (Life Technologies) SelectScreen Z'-LYTE
# T10 sequence (Q08881 1-620): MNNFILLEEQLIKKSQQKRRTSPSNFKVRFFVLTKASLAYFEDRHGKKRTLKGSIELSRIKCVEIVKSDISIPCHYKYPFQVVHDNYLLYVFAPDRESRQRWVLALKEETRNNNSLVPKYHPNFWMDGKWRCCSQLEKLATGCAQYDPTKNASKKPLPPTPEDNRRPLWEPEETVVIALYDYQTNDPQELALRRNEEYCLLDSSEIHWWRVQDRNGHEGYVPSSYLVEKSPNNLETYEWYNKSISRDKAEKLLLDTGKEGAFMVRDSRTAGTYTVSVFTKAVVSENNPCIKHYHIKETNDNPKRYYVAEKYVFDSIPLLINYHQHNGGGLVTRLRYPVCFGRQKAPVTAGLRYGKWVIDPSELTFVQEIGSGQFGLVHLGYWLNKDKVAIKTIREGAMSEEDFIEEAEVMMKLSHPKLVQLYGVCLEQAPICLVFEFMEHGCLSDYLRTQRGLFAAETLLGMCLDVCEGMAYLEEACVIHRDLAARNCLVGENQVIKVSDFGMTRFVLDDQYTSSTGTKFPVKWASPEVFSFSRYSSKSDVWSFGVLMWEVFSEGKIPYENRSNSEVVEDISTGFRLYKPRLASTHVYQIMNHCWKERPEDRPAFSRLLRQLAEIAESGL
# Method in brief: as §1
# [12] = target: T11, JAK1 (Homo sapiens, UniProt P23458); test: Kinase selectivity, Z'-LYTE; assay type: biochemical
# T11 construct: purchased Invitrogen (Life Technologies) SelectScreen Z'-LYTE
# Method in brief: as §1
# [13] = target: T12, LYNA (Homo sapiens, UniProt P07948); test: Kinase selectivity, Z'-LYTE; assay type: biochemical
# T12 construct: purchased Invitrogen (Life Technologies) SelectScreen Z'-LYTE
# Method in brief: as §1
# [14] = target: T13, MAP2K1 (MEK1) (Homo sapiens, UniProt Q02750); test: Kinase selectivity, Z'-LYTE; assay type: biochemical
# T13 construct: purchased Invitrogen (Life Technologies) SelectScreen Z'-LYTE
# Method in brief: as §1
# [15] = target: T14, MAPK9 (JNK2) (Homo sapiens, UniProt P45984); test: Kinase selectivity, Z'-LYTE; assay type: biochemical
# T14 construct: purchased Invitrogen (Life Technologies) SelectScreen Z'-LYTE
# Method in brief: as §1
# [16] = target: T15, MET (cMet) (Homo sapiens, UniProt P08581); test: Kinase selectivity, Z'-LYTE; assay type: biochemical
# T15 construct: purchased Invitrogen (Life Technologies) SelectScreen Z'-LYTE
# Method in brief: as §1
# [17] = target: T16, NTRK1 (TRKA) (Homo sapiens, UniProt P04629); test: Kinase selectivity, Z'-LYTE; assay type: biochemical
# T16 construct: purchased Invitrogen (Life Technologies) SelectScreen Z'-LYTE
# Method in brief: as §1
# [18] = target: T17, PAK6 (Homo sapiens, UniProt Q9NQU5); test: Kinase selectivity, Z'-LYTE; assay type: biochemical
# T17 construct: purchased Invitrogen (Life Technologies) SelectScreen Z'-LYTE
# Method in brief: as §1
# [19] = target: T18, PAK7 (KIAA 1264) (Homo sapiens, UniProt Q9P286); test: Kinase selectivity, Z'-LYTE; assay type: biochemical
# T18 construct: purchased Invitrogen (Life Technologies) SelectScreen Z'-LYTE
# Method in brief: as §1
# [20] = target: Pak1 (Homo sapiens, UniProt Q13153); test: Kinase selectivity, Z'-LYTE; assay type: biochemical
# Method in brief: as §1
# [21] = target: T19, CDK2/cyclin A (Homo sapiens, UniProt P24941); test: Kinase selectivity, Z'-LYTE; assay type: biochemical
# T19 construct: purchased Invitrogen (Life Technologies) SelectScreen Z'-LYTE
# Method in brief: as §1
# [22] = target: T20, RET (Homo sapiens, UniProt P07949); test: Kinase selectivity, Z'-LYTE; assay type: biochemical
# T20 construct: purchased Invitrogen (Life Technologies) SelectScreen Z'-LYTE
# Method in brief: as §1
# [23] = target: T21, RSK3 (Homo sapiens, UniProt Q15349); test: Kinase selectivity, Z'-LYTE; assay type: biochemical
# T21 construct: purchased Invitrogen (Life Technologies) SelectScreen Z'-LYTE
# Method in brief: as §1
# [24] = target: T22, RSK4 (Homo sapiens, UniProt Q9UK32); test: Kinase selectivity, Z'-LYTE; assay type: biochemical
# T22 construct: purchased Invitrogen (Life Technologies) SelectScreen Z'-LYTE
# Method in brief: as §1
# [25] = system: KT21-MG1-Luc5D intracranial xenografts; test: Orthotopic meningioma model, bioluminescence imaging; conditions: for loss of body weight compared with control littermates: SCID mice bearing KT21
# Description: Eight-week-old SCID mice were anesthetized with ketamine and their heads were stabilized in a small animal stereotaxic instrument. A midline sagittal incision was made on the cranial skin. A burr hole was drilled in the skull with coordinated 1.5 mm anterior and 1.5 mm lateral to the right from the bregma and a 5-μl Hamilton syringe loaded with cells was slowly inserted through the burr hole and ~0.5 mm downward to the skull base. The incision was closed using surgical absorbable gut suture.
# Mice transplanted with meningioma cells were imaged using Xenogen IVIS Spectrum (Caliper, MA). Mice were injected intraperitoneally with Rediject D-Luciferin Ultra at 150 mg/kg under anesthetized with isofluorane. Luciferase activity was measured and all bioluminescence imaging was conducted when perk signal was reached. Once tumors were established (~3 weeks post-transplantation), mice were divided into groups for shRNA studies or drug treatments.
# For drugs treatment, mice were dosed with Pak inhibitors daily for 14–21 days and tumor growth was monitored every week by BLI. Mean luminescence for each treatment groups (n = 5) was calculated as described previously.
# T9 sequence (P00533 25-1210): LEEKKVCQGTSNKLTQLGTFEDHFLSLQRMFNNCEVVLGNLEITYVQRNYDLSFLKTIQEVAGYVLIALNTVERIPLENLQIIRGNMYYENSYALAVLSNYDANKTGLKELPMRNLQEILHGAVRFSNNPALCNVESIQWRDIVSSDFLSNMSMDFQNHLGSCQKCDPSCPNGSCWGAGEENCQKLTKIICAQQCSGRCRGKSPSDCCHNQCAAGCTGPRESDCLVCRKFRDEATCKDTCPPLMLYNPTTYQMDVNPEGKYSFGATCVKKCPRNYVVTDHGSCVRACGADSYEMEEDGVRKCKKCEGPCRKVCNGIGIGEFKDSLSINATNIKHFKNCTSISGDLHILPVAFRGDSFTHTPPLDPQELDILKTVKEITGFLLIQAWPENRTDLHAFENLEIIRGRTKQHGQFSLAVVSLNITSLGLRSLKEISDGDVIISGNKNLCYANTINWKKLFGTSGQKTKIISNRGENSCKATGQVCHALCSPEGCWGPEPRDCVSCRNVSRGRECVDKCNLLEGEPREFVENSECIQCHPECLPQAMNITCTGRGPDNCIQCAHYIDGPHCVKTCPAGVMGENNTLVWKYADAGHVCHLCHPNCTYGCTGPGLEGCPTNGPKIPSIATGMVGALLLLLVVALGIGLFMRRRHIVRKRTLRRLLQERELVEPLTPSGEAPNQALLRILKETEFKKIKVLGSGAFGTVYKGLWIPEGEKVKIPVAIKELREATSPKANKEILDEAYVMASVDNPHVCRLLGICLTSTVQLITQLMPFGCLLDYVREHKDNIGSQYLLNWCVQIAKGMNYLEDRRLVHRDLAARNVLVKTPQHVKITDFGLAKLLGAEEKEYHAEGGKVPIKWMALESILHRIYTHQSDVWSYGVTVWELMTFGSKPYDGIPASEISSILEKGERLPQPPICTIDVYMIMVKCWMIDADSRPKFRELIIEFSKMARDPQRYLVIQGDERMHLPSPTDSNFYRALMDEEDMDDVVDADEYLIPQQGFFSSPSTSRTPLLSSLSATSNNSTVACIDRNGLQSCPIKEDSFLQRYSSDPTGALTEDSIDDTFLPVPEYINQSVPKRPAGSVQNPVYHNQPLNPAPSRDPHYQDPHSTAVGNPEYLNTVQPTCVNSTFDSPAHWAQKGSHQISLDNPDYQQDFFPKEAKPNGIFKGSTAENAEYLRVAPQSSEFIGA
# T15 sequence (P08581 25-1390): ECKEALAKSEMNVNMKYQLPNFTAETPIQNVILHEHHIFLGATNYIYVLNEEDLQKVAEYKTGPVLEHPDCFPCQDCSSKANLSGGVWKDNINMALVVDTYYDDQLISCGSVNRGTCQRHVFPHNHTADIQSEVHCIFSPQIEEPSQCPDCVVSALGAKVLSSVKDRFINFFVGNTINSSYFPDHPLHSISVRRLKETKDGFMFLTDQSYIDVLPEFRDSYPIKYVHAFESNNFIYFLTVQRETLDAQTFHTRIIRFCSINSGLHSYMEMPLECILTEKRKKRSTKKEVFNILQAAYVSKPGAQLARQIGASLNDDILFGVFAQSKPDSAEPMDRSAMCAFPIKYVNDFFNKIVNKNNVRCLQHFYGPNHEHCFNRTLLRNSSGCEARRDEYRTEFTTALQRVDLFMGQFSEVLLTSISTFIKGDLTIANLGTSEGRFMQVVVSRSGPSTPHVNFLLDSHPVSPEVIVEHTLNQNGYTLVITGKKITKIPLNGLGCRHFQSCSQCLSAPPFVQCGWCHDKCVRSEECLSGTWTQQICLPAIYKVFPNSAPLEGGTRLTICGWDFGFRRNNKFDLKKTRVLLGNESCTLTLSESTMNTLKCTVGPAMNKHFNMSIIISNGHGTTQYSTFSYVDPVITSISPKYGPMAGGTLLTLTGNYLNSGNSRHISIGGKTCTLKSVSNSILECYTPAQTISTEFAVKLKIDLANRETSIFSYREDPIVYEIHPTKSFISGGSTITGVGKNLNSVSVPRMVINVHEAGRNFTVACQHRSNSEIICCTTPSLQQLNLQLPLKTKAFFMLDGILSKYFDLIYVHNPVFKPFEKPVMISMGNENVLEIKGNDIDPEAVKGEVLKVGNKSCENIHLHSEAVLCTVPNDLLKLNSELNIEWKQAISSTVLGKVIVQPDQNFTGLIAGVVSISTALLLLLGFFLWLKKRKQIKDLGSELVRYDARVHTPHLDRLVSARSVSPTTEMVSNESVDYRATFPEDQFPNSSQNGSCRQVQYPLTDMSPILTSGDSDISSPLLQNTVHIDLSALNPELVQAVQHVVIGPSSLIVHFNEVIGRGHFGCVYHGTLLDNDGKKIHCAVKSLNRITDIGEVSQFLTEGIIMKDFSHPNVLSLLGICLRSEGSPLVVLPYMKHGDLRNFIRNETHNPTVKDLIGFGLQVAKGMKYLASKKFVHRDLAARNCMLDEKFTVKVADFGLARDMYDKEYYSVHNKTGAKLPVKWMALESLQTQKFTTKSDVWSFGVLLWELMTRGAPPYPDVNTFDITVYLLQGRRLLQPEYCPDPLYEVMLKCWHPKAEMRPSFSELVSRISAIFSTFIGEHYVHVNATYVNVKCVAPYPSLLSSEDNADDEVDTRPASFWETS
# T18 sequence (Q9P286 whole entry): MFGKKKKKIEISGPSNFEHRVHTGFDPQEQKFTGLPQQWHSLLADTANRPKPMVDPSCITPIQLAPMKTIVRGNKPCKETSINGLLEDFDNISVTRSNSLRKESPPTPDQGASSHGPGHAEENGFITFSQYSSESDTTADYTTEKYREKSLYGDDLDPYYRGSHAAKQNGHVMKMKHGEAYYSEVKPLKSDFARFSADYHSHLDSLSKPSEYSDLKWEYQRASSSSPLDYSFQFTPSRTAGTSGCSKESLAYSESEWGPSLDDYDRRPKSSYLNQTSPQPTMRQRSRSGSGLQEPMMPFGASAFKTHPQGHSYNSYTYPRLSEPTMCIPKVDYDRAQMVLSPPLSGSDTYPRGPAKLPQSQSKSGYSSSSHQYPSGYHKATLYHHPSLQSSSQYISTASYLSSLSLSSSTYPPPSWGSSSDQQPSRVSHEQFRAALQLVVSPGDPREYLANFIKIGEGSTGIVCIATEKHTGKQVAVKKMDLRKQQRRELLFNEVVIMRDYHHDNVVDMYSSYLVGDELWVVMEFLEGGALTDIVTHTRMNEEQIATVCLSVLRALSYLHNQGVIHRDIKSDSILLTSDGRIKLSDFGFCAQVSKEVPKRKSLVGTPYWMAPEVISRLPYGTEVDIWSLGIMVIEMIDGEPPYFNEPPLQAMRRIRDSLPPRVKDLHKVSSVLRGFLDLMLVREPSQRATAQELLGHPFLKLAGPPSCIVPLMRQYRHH
# T11 sequence (P23458 whole entry): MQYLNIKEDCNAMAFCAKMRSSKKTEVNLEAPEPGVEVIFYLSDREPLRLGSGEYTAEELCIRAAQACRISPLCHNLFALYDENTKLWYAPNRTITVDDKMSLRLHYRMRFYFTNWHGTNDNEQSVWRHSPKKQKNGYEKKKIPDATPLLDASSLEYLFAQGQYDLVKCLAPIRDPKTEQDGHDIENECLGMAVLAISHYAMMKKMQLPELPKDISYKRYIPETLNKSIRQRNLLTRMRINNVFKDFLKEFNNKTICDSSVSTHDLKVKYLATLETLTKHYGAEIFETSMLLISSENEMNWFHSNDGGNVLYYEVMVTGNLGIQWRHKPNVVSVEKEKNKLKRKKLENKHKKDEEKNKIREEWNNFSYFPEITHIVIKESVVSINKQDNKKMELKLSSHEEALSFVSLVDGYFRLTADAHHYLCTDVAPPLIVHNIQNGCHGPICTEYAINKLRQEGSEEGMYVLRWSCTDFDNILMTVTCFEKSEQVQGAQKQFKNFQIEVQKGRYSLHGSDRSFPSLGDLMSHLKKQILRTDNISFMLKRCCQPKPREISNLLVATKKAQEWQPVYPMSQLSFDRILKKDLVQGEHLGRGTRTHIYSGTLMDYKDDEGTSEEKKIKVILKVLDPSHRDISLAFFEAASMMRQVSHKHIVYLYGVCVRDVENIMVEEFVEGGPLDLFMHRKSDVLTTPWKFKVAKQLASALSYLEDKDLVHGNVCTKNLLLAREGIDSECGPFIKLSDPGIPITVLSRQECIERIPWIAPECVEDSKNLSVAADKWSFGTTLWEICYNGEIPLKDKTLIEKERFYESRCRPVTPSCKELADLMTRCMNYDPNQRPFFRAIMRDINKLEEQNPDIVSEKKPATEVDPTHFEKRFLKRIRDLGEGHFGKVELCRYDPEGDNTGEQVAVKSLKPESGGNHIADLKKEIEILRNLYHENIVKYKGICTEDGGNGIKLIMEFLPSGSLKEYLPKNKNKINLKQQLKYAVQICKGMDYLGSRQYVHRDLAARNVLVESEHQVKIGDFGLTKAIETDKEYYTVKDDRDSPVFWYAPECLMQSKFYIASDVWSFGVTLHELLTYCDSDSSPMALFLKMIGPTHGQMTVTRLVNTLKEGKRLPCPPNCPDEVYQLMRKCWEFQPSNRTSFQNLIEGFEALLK
# T12 sequence (P07948 whole entry): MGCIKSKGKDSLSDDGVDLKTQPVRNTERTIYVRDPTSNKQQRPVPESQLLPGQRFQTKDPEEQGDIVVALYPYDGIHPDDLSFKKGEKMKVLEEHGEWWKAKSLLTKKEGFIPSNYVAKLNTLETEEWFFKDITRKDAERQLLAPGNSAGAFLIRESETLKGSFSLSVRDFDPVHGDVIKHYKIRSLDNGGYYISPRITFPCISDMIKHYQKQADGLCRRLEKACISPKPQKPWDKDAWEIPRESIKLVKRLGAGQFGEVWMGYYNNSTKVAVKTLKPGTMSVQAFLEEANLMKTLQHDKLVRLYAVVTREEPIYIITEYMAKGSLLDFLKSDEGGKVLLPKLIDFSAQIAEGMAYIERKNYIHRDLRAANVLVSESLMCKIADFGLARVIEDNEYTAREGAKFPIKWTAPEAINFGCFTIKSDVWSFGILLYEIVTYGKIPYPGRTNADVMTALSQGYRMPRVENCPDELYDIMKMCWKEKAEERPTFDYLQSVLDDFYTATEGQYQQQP
% inhibition of activity [7] [%],% inhibition of activity [8] [%],% inhibition of activity [10] [%],% inhibition of activity [11] [%],% inhibition of activity [12] [%],% inhibition of activity [13] [%],% inhibition of activity [14] [%],% inhibition of activity [15] [%],% inhibition of activity [16] [%],% inhibition of activity [18] [%],% inhibition of activity [19] [%],Compound,number of apoptotic cells [1],% inhibition of activity [2] [%],% inhibition of activity [3] [%],% inhibition of activity [4] [%],% inhibition of activity [5] [%],% inhibition of activity [6] [%],% inhibition of activity [9] [%],% inhibition of activity [17] [%],% inhibition of activity [20] [%],also measured
96,20,4,23,2,76,39,0,19,98,99,"Cc1nc(Nc2[nH]nc3c2CN(C(=O)N[C@H](CN(C)C)c2ccccc2)C3(C)C)c2sccc2n1 [PF3758309, reference compound]",substantial increase,77,0,100,100,18,7,73,100,
−3,41,2,0,1,39,27,44,36,27,9,CCn1c(=O)c(-c2ccc(-c3cncc(C)n3)cc2Cl)cc2cnc(NCCC3CCN(C)CC3)nc21 [Frax1036],substantial increase,,,,,,,,,"% inhibition of activity [21]: −14%; % inhibition of activity [22]: 8%; % inhibition of activity [23]: 26%; % inhibition of activity [24]: 9%; loss of body weight compared with control littermates ([25]; Frax597 90 mg/kg/day, Frax1036 30 mg/kg/day, oral gavage): not seen; reduction in BMI signals ([25]; SCID mice, KT21, oral gavage 30 mg/kg/day, 2 weeks, P = 0.042): 37%"

Compound,% inhibition of activity [7] [%],% inhibition of activity [8] [%],% inhibition of activity [10] [%],% inhibition of activity [11] [%],% inhibition of activity [12] [%],% inhibition of activity [13] [%],% inhibition of activity [14] [%],% inhibition of activity [15] [%],% inhibition of activity [16] [%],% inhibition of activity [18] [%],% inhibition of activity [19] [%],number of apoptotic cells [1],% inhibition of activity [2] [%],% inhibition of activity [3] [%],% inhibition of activity [4] [%],% inhibition of activity [5] [%],% inhibition of activity [6] [%],% inhibition of activity [9] [%],% inhibition of activity [17] [%],% inhibition of activity [20] [%],also measured
CCn1c(=O)c(-c2ccc(-c3noc(C)n3)cc2Cl)cc2cnc(Nc3ccc(C4CCN(C)CC4)cc3)nc21 [Frax716],2,97,20,84,1,88,48,20,38,17,17,substantial increase,82,9,13,29,3,13,92,95,"% inhibition of activity [21]: 0%; % inhibition of activity [22]: 91%; loss of body weight compared with control littermates ([25]; oral gavage 20 mg/kg/day): > 10%; reduction on bioluminescence ([25]; SCID mice, KT21, oral gavage 20 mg/kg/day, 2 weeks, P = 0.028): 60%"
